# From patent publication US8895032B2, “Dendritic nano-antioxidants” (Central Michigan University, priority 2009, dated 2014)
# pIC50: −log10 of the molar value.
# Legend:
# plasmid DNA pBR 322 = assay: Protection of plasmid DNA from AAPH damage (agarose electrophoresis); format: biochemical; details: 10 mM AAPH, 37° C., 4 h; for DNA protection: 5 μM antioxidant
# Experimental: The effectiveness of the three compounds to protect DNA from AAPH damage was also determined. The plasmid DNA pBR 322 was incubated with AAPH (final concentration 10 mM) at 37° C. for 4 h with or without antioxidants (final concentrations, 0.35-45 μM), after which the samples were subjected to agarose electrophoresis (Sakihama, Y., et al. Toxicology 2002, 177, 67, incorporated herein by reference in its entirety). […] In the absence of AAPH, pBR 322 was mostly in its supercoiled (S) form (small amount of open circular, O, form was also visible, lane 1 FIG. 25). After reaction with AAPH, the DNA was transformed almost entirely into its open circular form (lane 2, FIG. 25). […] No protection was obtained for both compound 1 and quercetin below 5 μM (lanes 7-10, FIG. 25). […] Compound 3 as well as Trolox were ineffective at all concentrations used in the experiment (0.35-45 μM).
# Protection of DNA from free radical damage by the antioxidant dendrimers (compounds 4, 5, and 1) was also evaluated. Plasmid DNA (pBR 322) samples, were incubated with AAPH (final concentration 10 mM) at 37° C. for 4 h with antioxidants (final concentrations, 0.35-45 μM) and subjected to agarose electrophoresis. […] The native DNA was mostly in its supercoiled (S) form (small amount of open circular, O, form was also visible, lane 1, FIG. 31). In the presence of AAPH, the DNA was transformed almost entirely into its O form (lane 2, FIG. 31). […] Negligible DNA protection was afforded by all three dendrimers at ≦2.5 μM (lanes 7-10, FIG. 31). Under similar conditions, Trolox as well as the starting materials for dendrimer synthesis were ineffective at all concentrations.
# DPPH radical assay = details: read-out: DPPH IC50 at 120 min; Example 15
# Experimental: The DPPH assay was one of three electron transfer (ET) assays used to determine the antioxidant potential of compound 1 (described in Example 6) in comparison to its monomeric counterpart (syringaldehyde) as well as popular antioxidants. In an ET assay, an antioxidant donates electron(s) to a molecular probe, thus reducing it. From the assay, thermodynamic conversion of antioxidant to antioxidant radical (oxidation) is measured during a fixed time period.
# The reduction of DPPH radical was determined for ascorbic acid, Trolox, syringaldehyde, and the compound 1 described in Example 6 as previously reported (Brand-Williams, et al. Lebensm.-Wiss U.-Technol. 1995, 28, 25-30, incorporated herein by reference in its entirety). In the DPPH assay, DPPH• radical was reduced by the antioxidant in methanol (Brand-Williams, et al. Lebensm.-Wiss U.-Technol. 1995, 28, 25-30, incorporated herein by reference in its entirety). […] The DPPH reagent was made in methanol. Antioxidant sample (10 μL) was added to 1.0 mL of reagent and the absorbance was monitored at 515 nm until a plateau was reached. Antioxidant concentrations were 50 μM syringaldehyde, 12.5 μM Trolox and ascorbic acid, and 5 μM compound 1. All samples were made in methanol and run in triplicates at room temperature.
# The DPPH• scavenging capacity of each antioxidant was evaluated from the plot of the percentage DPPH• remaining when the kinetics reached a steady state as a function of the molar ratios of antioxidant to DPPH•. […] Using the curve, EC50 (the amount of antioxidant necessary to decrease the initial DPPH• concentration by 50%), antiradical power (1/EC50, ability to reduce the DPPH•), reaction stoichiometry (EC50×2, the concentration of antioxidant required to reduce 100% of DPPH• radical), and the number of reduced DPPH• per antioxidant molecule (1/stoichiometry) for each antioxidant were calculated as previously described (Brand-Williams, et al. Lebensm.-Wiss U.-Technol. 1995, 28, 25-30, incorporated herein by reference in its entirety) and are depicted in Table 1.
# Antioxidant capacity of the compounds was assessed by the DPPH assay (Brand-Williams, et al. Lebensm. Wiss. Technol. 1995, 28, 25, incorporated herein by reference in its entirety). […] In FIG. 22, control with methanol is (X, dashed); compound 1 is (□), compound 2 is (•), compound 3 is (◯), and Trolox (Δ). All antioxidant concentrations were 5 μM.
# The free-radical scavenging ability of the antioxidants was evaluated by the DPPH assay, as described above in Example 7.
# [1] = system: Chinese hamster ovary (CHO-K1) cells; assay: Cell toxicity, MTT; format: cell-based; details: 3.1-50 μM, over 5 days
# Experimental: Data on cell toxicity of compound 4 and compound 5 were obtained with Chinese hamster ovary (CHO) cells using 3-(4,5-di-methylthizol-2-yl)-2,5 diphenyltetrazolium bromide (MTT). Chinese Hamster Ovary (CHO-K1) cells were cultured in F-12K medium supplemented with 10% fetal bovine serum. The cells (3×10^5/ml) were seeded in 100 μL volumes in 96 well culture plates and incubated with the solvent control (DMSO, 0.3%), compound 4 or compound 5 at 3.1, 6.2, 12.5, 25, or 50 μM for 1, 3, or 5 days. Two hours prior to experimental termination, 20 μL of a 5 mg/mL MTT solution in 0.01 M PBS was added to each well. Plates were centrifuged at 450×g for 10 min and supernatant was removed. The resultant formazan crystals were dissolved in 100 μL DMSO and mixed. Absorbance was measured using a Biolog microplate reader (Biotek Instruments) at dual wavelengths, 590 and 650 nm. Percent control response was calculated as follows: (absorbance of treatment/absorbance of control)×100. All experiments were performed in triplicate and repeated. The data were analyzed using Systat 12 for windows. Multiple groups were compared using a one-way analysis of variance (ANOVA) and a Tukey test for mean separation. A p value<0.05 was considered statistically significant.
# Human LDL = assay: Protection of LDL from AAPH oxidation (agarose gel electrophoresis); format: biochemical; details: 21 h, 37° C.
# Excerpt: The antioxidant activity of compounds 1, 2, and 3 towards biomolecules was examined by studying their ability to protect LDL, fatty acid, and DNA from free radicals. For LDL, AAPH was used to induce free radical damage. AAPH was used instead of copper (Cu^2) ion for LDL oxidation so that the free radical scavenging activity of the antioxidants could be measured without any pro-oxidant interference caused by metal ions (Salah, N. et al. Arch. Biochem. Biophys. 1995, 322, 339, incorporated herein by reference in its entirety). All solutions were made in ultra-pure water.
# Protection of LDL from AAPH free radicals by the antioxidant decreased the anodic shift in a dose-dependent manner (FIG. 23). […] The increased hydrophobicity of compound 3 may be partly responsible for its improved LDL protection over compound 2.
# The antioxidant activity of the antioxidants towards biomolecules was examined by studying their ability to protect LDL, lysozyme, and DNA from free radicals. For LDL, AAPH was used to induce free radical damage. AAPH was used instead of Cu^2+ for LDL oxidation so that the free radical scavenging activity of the antioxidants could be measured without any pro-oxidant interference caused by metal ions. The oxidation of human low-density lipoprotein was used as a model for evaluating the ability of the G1 dendrimers as chain-breaking antioxidants for lipid. Oxidation of LDL leads to changes in both the lipid and the protein moieties of the lipoprotein particle. Lipid peroxidation in LDL has been evaluated by a variety of methods. Due to the complexity of events that occur in lipoprotein oxidation, the electrophoretic migration pattern of oxidized LDL is one of the best methods to evaluate the extent of lipoprotein oxidation. LDL was incubated with 20 mM AAPH and increasing concentrations of the G1 dendrimers (0-37 μM in PBS) for 21 h at 37° C. The mixture was then subjected to agarose gel electrophoresis using the Ciba Corning Clinical Electrophoresis System. The agarose gel was stained with Fat Red 7B. In FIG. 30A (top), lane 1 is native LDL, and lanes 2-8 are AAPH-oxidized LDL with 0, 37, 18.5, 9, 4.5, 2 and 1 μM compound 4, respectively. In FIG. 30B (bottom), lane 1 is native LDL, and lanes 2-8 are AAPH-oxidized LDL with 0, 37, 18.5, 9, 4.5, 2 and 1 μM quercetin or Trolox, respectively.
pIC50 (DPPH radical assay),Compound,DNA protection (plasmid DNA pBR 322),DNA protection (S band intensity) (plasmid DNA pBR 322; 11-45 μM antioxidant),CHO cell viability (MTT) [1],"protection of LDL against free radical damage (Human LDL; 15 μM and 30 μM, 20 mM AAPH)","protection of LDL at lower concentrations (Human LDL; lanes 5-8, 20 mM AAPH)",only concentration effective in protecting LDL (Human LDL; 20 mM AAPH) [µM]
5.70,COc1cc(CN(CCN(CCN(Cc2cc(OC)c(O)c(OC)c2)Cc2cc(OC)c(O)c(OC)c2)CCN(Cc2cc(OC)c(O)c(OC)c2)Cc2cc(OC)c(O)c(OC)c2)Cc2cc(OC)c(O)c(OC)c2)cc(OC)c1O [Compound 4],Some protection,well protected,did not show any reduction in cell viability,fully protected,ineffective,–
5.70,COc1cc(CN(CCN(CCN(Cc2ccc(O)c(OC)c2)Cc2ccc(O)c(OC)c2)CCN(Cc2ccc(O)c(OC)c2)Cc2ccc(O)c(OC)c2)Cc2ccc(O)c(OC)c2)ccc1O [Compound 5],Some protection,–,did not show any reduction in cell viability,–,–,30
